{"source": "patent US20260207637A1", "about": "“MODULATOR FOR PROMOTING BINDING OF BUTYROPHILIN 3A1/2A1” (priority 2023, published 2026)", "key": {"SKOV3/ELP cells": {"test_system": "SKOV3/ELP cells", "assay": "EC50 assay of small molecule activated γδ T cells to kill SKOV3/ELP tumor cells", "assay_type": "cell-based", "conditions": "γδT cells + SKOV3/ELP, E:T=2:1, co-culture 20 hours, 0.05-100 nM, read-out: SKOV3 killing (EC50)", "experimental": "(§1) γδT cells and SKOV3/ELP tumor cell lines were expanded and cultured in vitro. The SKOV3/ELP cells were digested, and the cells were counted and resuspended in MC5A complete medium, the density of the cell suspension was adjusted and added into a 96-well plate at 5×10^3 cells/100 L/well for overnight incubation. On the next day, the test compound and the control compound were diluted at a 3-fold ratio with DMSO, and 4 μL of the diluted compound was added to 96 μL of culture medium for 25-fold dilution. 5 μL of 25-fold diluted compound was transferred to the corresponding well which had been plated with tumor cells, and the actual detection concentration was in the range of 0.05-100 nM. γδT cells were resuspended in γδT complete medium, and the density of the cell suspension was adjusted according to the effector-target ratio of E:T=2:1, and then the cell was added to the corresponding well at 1×10^4 cells/100 μL/well. After co-culture at 37° C., 5% CO2 for 20 hours, the cells were centrifuged. […] After standing for 18 minutes in the dark, the signal of chemiluminescence was detected. The EC50 value was calculated by four-parameter fitting, with the corresponding signal value of the well with only tumor cells as the minimum killing value, and the corresponding value of the well without tumor cells as the maximum killing value."}, "MV4-11-luc cells": {"test_system": "MV4-11-luc cells", "assay": "EC50 assay of small molecule activated γδ T cells to kill MV4-11-luc tumor cells", "assay_type": "cell-based", "conditions": "γδT cells + MV4-11-luc, E:T=2:1, co-culture 20 hours, 0.05-100 nM, read-out: MV4-11 killing (EC50)", "experimental": "as §1, with “and MV4-11-luc” for “and SKOV3/ELP”, “The MV4-11-luc” for “The SKOV3/ELP”, “in IMDM” for “in MC5A”, “cells/100 μL/well” for “cells/100 L/well”"}, "human plasma protein": {"test_system": "human plasma protein", "assay": "Binding rate test of compounds and human plasma protein (equilibrium dialysis)", "assay_type": "in vitro ADME", "conditions": "1 μM, equilibrium dialysis 6 hours, 37° C.", "experimental": "(§2) (1) The dry dialysis membrane was soaked with ultrapure water for 20 min or more than 20 min, then soaked with 20% ethanol for 30 min to 1 h, and the membrane was rinsed with ultrapure water 2-3 times. Finally, the membrane was soaked with ultrapure water for 20 minutes for later use.\n(§3) (2) The frozen plasma was thawed in a water bath at 37° C.\n(§4) (3) The test compound was diluted into plasma preheated to 37° C. at a final concentration of 1 μM, and the final concentration of the control compound warfarin in plasma was 2 μM.\n(§5) (4) The pre-treated dialysis membrane was assembled into the dialysis plate according to the specification of the product, and 120 μL of the receiving solution (100 mM phosphate buffer solution added 0.002% Tween 80) was added to one side of the permeable membrane in each dialysis well.\n(§6) (5) 20 μL of each of the final solutions of the test compound and the control compound were added into a 96-well sample plate in duplicate, and the TO sample was obtained, which was stored in a refrigerator at −20° C. Another 20 μL of the above final solution was added to the other side of the membrane in the dialysis device in duplicate, and incubated at 37° C. by shaking at constant temperature for 6 hours.\n(§7) (6) After 6 hours of incubation, 20 L of each of the dialyzed receiving solution and the administered plasma were weighed to obtain sample B and sample A in duplicate. The corresponding volume of corresponding blank plasma or receiving solution was added to sample B and sample A, respectively, so that the volume ratio of plasma to buffer in each sample well was 1:1. 300 μL of acetonitrile solution containing internal standard was added to all sample wells, and centrifuged after mixed uniformly.\n(§8) (7) 200 μL of ultrapure water (150 μL for the control group) was added into the corresponding sample wells of the 96-well sample plate, and 300 μL of the supernatant (150 μL for the control group) was added into the sample well; the samples were analyzed after mixed uniformly. The free percentage and recovery rate of the compound in plasma were calculated using the following formula: Plasma protein binding rate (%)=1−free percentage, wherein free percentage (%)=CB/CA\n(§9) wherein CB is the concentration of the compound in the receiving solution after equilibrium dialysis, CA is the concentration of the compound in the drug-dosed plasma after equilibrium dialysis, and CT0 is the initial concentration of the compound in plasma."}, "[1]": {"assay": "Pharmacokinetic test in cynomolgus monkeys", "assay_type": "in vivo", "conditions": "IV 2 mg/kg", "experimental": "The control compound 2 and compound 19 were formulated into 1 mg/mL solution in 10% DMSO/90% PBS. Cynomolgus monkeys were obtained from Suzhou Leo Bio Technology Co., Ltd. The control compound 2 and compound 19 were administered intravenously at 2 mg/kg, respectively. The blood collected before administration was recorded as zero point. Then 1 mL of blood was collected at eight time points: 0.083, 0.15, 0.5, 1.0 2.0, 4.0, 8.0, and 24.0, respectively. 1 mL of the collected whole blood was placed in a labeled EDTA-2K anticoagulant tube. After gently inverting up and down to fully mix the anticoagulant (EDTA-2K) with the blood, it was immediately placed in wet ice and centrifuged within 30 minutes to separate the plasma. The centrifugation conditions were set to 4° C., 2200 g, and 6 min. The plasma separated after centrifugation was placed in a labeled EP tube, and the content of compound 19 and control compound 2 in the plasma samples at different time points were detected and analyzed. There were 3 male cynomolgus monkeys in each group."}, "[2]": {"assay": "Binding rate test of compounds and human plasma protein (equilibrium dialysis)", "assay_type": "in vitro ADME", "conditions": "human plasma, equilibrium dialysis 6 hours, 37° C.", "experimental": "as §2, §3, §4, §5, §6, §7, §8, §9"}}, "note": "Where two headings read alike, the source gives them in different places."}
{"smiles": "C/C(=C\\CC[P@@](=O)(N[C@@H](C)C(=O)O[C@@H]1CCOC1)Oc1ccccc1)CO", "note": "[Compound 19, (R)-tetrahydrofuran-3-yl ((S)-((R)-5-hydroxy-4-methylpent-3-en-1-yl)(phenoxy)phosphoryl)-L-alaninate]", "values": [{"measurement": "EC50", "setting": "SKOV3/ELP cells", "result": 0.47, "unit": "nM"}, {"measurement": "EC50", "setting": "MV4-11-luc cells", "result": 0.004, "unit": "nM"}, {"measurement": "human plasma protein binding rate", "setting": "human plasma protein", "result": 64.6, "unit": "%"}, {"measurement": "Plasma concentration of the unchanged drug", "setting": "[1]; 5 min", "result": 1370, "unit": "ng/mL"}, {"measurement": "Plasma concentration of the unchanged drug", "setting": "[1]; 9 min", "result": 878, "unit": "ng/mL"}, {"measurement": "Plasma concentration of the unchanged drug", "setting": "[1]; 30 min", "result": 139, "unit": "ng/mL"}, {"measurement": "Plasma concentration of the unchanged drug", "setting": "[1]; 1 h", "result": 12, "unit": "ng/mL"}, {"measurement": "AUC0-t (AUClast)", "setting": "[1]; average", "result": 426, "unit": "ng·h/mL"}, {"measurement": "AUC0-t/AUC0-inf", "setting": "[1]; average", "result": 0.959}, {"measurement": "Cl (Cl_obs)", "setting": "[1]; average", "result": 76.3, "unit": "mL/min/kg"}]}
{"smiles": "C/C(=C\\CCP(=O)(N[C@@H](C)C(=O)OC(C)C)Oc1ccccc1)CO", "note": "(stereo partly drawn) [Control compound 1, Isopropyl (((E)-5-hydroxy-4-methylpent-3-en-1-yl)(phenoxy)phosphoryl)-L-alaninate, reference compound]", "values": [{"measurement": "EC50", "setting": "SKOV3/ELP cells; Homo sapiens, SK-OV-3", "result": 1.14, "unit": "nM"}, {"measurement": "EC50", "setting": "MV4-11-luc cells; Homo sapiens", "result": 0.05, "unit": "nM"}, {"measurement": "fraction unbound at 6 h, 1 μM", "setting": "[2]", "result": 0.073}]}
